Test results as given in patent publication US10611740B2, “Aryl dihydro-2H-benzo[b][1,4]oxazine sulfonamide and related compounds for use as agonists of RORγ and the treatment of disease” (Lycera Corporation, priority 2015, dated 2020).

What was measured:
RORγ-LBD = biological target: T1, RORγ-LBD (Homo sapiens, UniProt P51449); experiment: RORγ-Ligand Binding Domain (LBD) TR-FRET Assay; format: biochemical;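 on TR-FRET Assay Max Response: 665/615 nm ratio relative to signal without ursolic acid or compound set at 100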
T1 construct: made in house; host or cells: SF9 cells (baculovirus)
T1 sequence (P51449 269-508 limits assumed): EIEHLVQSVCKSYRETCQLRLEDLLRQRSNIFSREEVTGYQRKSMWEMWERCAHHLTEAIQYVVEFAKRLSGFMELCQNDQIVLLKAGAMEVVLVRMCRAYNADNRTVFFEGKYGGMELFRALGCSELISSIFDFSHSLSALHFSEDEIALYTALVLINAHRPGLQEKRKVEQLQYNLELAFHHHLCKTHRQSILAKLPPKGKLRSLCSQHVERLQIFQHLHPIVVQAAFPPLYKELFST
In short: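 Lysate from SF9 cells expressing His-RORγ-LBD is diluted to about 3 nM final in 50 mM Tris pH 7.0 assay buffer. A biotin-tagged SRC1 LXXLL peptide goes in at 200 nM final, plus ursolic acid at 2 μM final. Test compounds carry 1% DMSO final; signal read by TR-FRET.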

Gal4-RORγ-LBD = biological target: T2, Gal4-RORγ-LBD (Homo sapiens, UniProt P51449); experiment: Gal4-RORγ Luciferase Reporter Assay in HEK-293T Cells; format: cell-based; conditions: HEK-293 cells
T2 construct: expressed in transfected cells; host or cells: HEK-293 cells (pcDNA3.1neo plasmid)
T2 sequence (P51449 269-508 limits assumed): T1 sequence (P51449 269-508 limits assumed)
In short: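 In transfected HEK-293 cells (Gal4-RORγ-LBD, Gal4-luciferase), test agents with 2 μM ursolic acid were incubated overnight at 37 °C before luminescent detection. Values are relative to the ursolic-acid-free, compound-free signal (100).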

[1] = luciferase reporter, with 2 μM ursolic acid

Row | SMILES | EC50 (RORγ-LBD) [nM] | EC50 (Gal4-RORγ-LBD; 2 μM ursolic acid) [nM] | EC50 (Gal4-RORγ-LBD; [1]) [nM] | TR-FRET Assay Max Response (RORγ-LBD) | Gal4-RORγ Assay Max Response (Gal4-RORγ-LBD; 2 μM ursolic acid) | Gal4-RORγ Assay Max Response (Gal4-RORγ-LBD; [1])
1 | O=C(O)CC[C@H]1CN(S(=O)(=O)c2cccc(C(F)(F)F)c2)c2cc(-c3cccc(Cl)c3)cc(F)c2O1 [Compound 8, (S)-3-(6-(3-chlorophenyl)-8-fluoro-4-((3-(trifluoromethyl)phenyl)sulfonyl)-3,4-dihydro-2H-benzo[b][1,4]oxazin-2-yl)propanoic acid] | < 500 |  | < 500 | **** (The symbol “****” indicates a value greater than 200) |  | ** (The symbol “**” indicates a value in the range of greater than 90 to 150)
2 | Cc1cccc(-c2ccc3c(c2)N(S(=O)(=O)c2cccc(C(F)(F)F)c2)C[C@H](CCC(=O)O)O3)c1F [Compound 2AY, (S)-3-(6-(2-fluoro-3-methyl-phenyl)-4-((3-(trifluoro-methyl)phenyl)sulfonyl)-3,4-dihydro-2H-benzo[b][1,4]-oxazin-2-yl)propanoic acid] | < 500 |  | 500 to 5000 | **** (The symbol “****” indicates a value greater than 200) |  | **** (The symbol “****” indicates a value greater than 200)
3 | Cc1cccc(-c2ccc3c(c2)N(S(=O)(=O)c2cccc(C(F)(F)F)c2)C[C@H](CCC(=O)O)O3)c1 [Compound 2Q, (S)-3-(6-(m-tolyl)-4-((3-(trifluoromethyl)phenyl)-sulfonyl)-3,4-dihydro-2H-benzo[b][1,4]oxazin-2-yl)propanoic acid] | < 500 |  | < 500 | *** (The symbol “***” indicates a value in the range of greater than 150 to 200) |  | *** (The symbol “***” indicates a value in the range of greater than 150 to 200)
4 | CC(C)(C[C@H]1CN(S(=O)(=O)c2cccc(C(F)(F)F)c2)c2cc(-c3cc(Cl)cc(OC(F)F)c3)ccc2O1)C(=O)O [Compound 32R, (S)-3-(6-(3-chloro-5-(difluoro-methoxy)phenyl)-4-((3-(trifluoro-methyl)phenyl)sulfonyl)-3,4-dihydro-2H-benzo[b][1,4]oxazin-2-yl)-2,2-dimethylpropanoic acid] | < 500 |  | < 500 | *** (The symbol “***” indicates a value in the range of greater than 150 to 200) |  | ** (The symbol “**” indicates a value in the range of greater than 90 to 150)
5 | Cc1ncc(F)cc1-c1ccc2c(c1)N(S(=O)(=O)c1cccc(C(F)(F)F)c1)C[C@H](CCC(=O)O)O2 [Compound 4AF, (S)-3-(6-(5-fluoro-2-methylpyridin-3-yl)-4-((3-(trifluoromethyl)phenyl)sulfonyl)-3,4-dihydro-2H-benzo[b][1,4]oxazin-2-yl)propanoic acid] | < 500 |  | < 500 | **** (The symbol “****” indicates a value greater than 200) |  | ** (The symbol “**” indicates a value in the range of greater than 90 to 150)
6 | COc1cccc(-c2ccc3c(c2)N(S(=O)(=O)c2cccc(C(F)(F)F)c2)C[C@H](CCC(=O)NCC(=O)O)O3)c1 [Compound 23K, (S)-(3-(6-(3-methoxyphenyl)-4-((3-(trifluoromethyl)-phenyl)sulfonyl)-3,4-dihydro-2H-benzo[b][1,4]oxazin-2-yl)propanoyl)glycine] | < 500 |  | 500 to 5000 | **** (The symbol “****” indicates a value greater than 200) |  | ** (The symbol “**” indicates a value in the range of greater than 90 to 150)
7 | CN(C)c1cccc(-c2ccc3c(c2)N(S(=O)(=O)c2cccc(C(F)(F)F)c2)C[C@H](CCCOc2noc(=O)[nH]2)O3)n1 [Compound 35, (S)-3-(3-(6-(6-(dimethylamino)pyridin-2-yl)-4-((3-(trifluoromethyl)phenyl)sulfonyl)-3,4-dihydro-2H-benzo[b][1,4]oxazin-2-yl)propoxy)-1,2,4-oxadiazol-5(4H)-one] | < 500 |  | < 500 | **** (The symbol “****” indicates a value greater than 200) |  | ** (The symbol “**” indicates a value in the range of greater than 90 to 150)
8 | CC(C)(O)C(=O)NC[C@H]1CN(S(=O)(=O)c2cccc(OC(F)F)c2)c2cc(-c3cc(F)ccc3F)ccc2O1 [Compound 30R, (S)-N-((4-((3-(difluoromethoxy)-phenyl)sulfonyl)-6-(2,5-difluorophenyl)-3,4-dihydro-2H-benzo[b][1,4]oxazin-2-yl)methyl)-2-hydroxy-2-methylpropanamide] | < 500 |  | < 500 | **** (The symbol “****” indicates a value greater than 200) |  | ** (The symbol “**” indicates a value in the range of greater than 90 to 150)
9 | COc1c(Cl)cccc1-c1ccc2c(c1)N(S(=O)(=O)c1cccc(C(F)(F)F)c1)C[C@H](CCC(=O)O)O2 [Compound 2AC, (S)-3-(6-(3-chloro-2-methoxy-phenyl)-4-((3-(trifluoromethyl)-phenyl)sulfonyl)-3,4-dihydro-2H-benzo[b][1,4]oxazin-2-yl)propanoic acid] | < 500 |  | < 500 | **** (The symbol “****” indicates a value greater than 200) |  | *** (The symbol “***” indicates a value in the range of greater than 150 to 200)
10 | O=C(NC[C@H]1CN(S(=O)(=O)c2cccc(C(F)(F)F)c2)c2cc(-c3cc(F)ccc3F)ccc2O1)N1CCOCC1 [Compound 16, (S)—N-((6-(2,5-difluorophenyl)-4-((3-(trifluoromethyl)phenyl)sulfonyl)-3,4-dihydro-2H-benzo[b][1,4]oxazin-2-yl)methyl)morpholine-4-carboxamide] | < 500 | < 500 |  | **** (The symbol “****” indicates a value greater than 200) | ** (The symbol “**” indicates a value in the range of greater than 90 to 150) | 

Now from value to compound, other results behind:

Row | EC50 (RORγ-LBD) [nM] | EC50 (Gal4-RORγ-LBD; 2 μM ursolic acid) [nM] | EC50 (Gal4-RORγ-LBD; [1]) [nM] | SMILES | TR-FRET Assay Max Response (RORγ-LBD) | Gal4-RORγ Assay Max Response (Gal4-RORγ-LBD; 2 μM ursolic acid) | Gal4-RORγ Assay Max Response (Gal4-RORγ-LBD; [1])
11 | < 500 | < 500 |  | CC(C)(C[C@H]1CN(S(=O)(=O)c2cccc(C(F)(F)F)c2)c2cc(-c3cc(F)cc(OC(F)F)c3F)ccc2O1)C(=O)O [Compound 32BG, (S)-3-(6-(3-(difluoromethoxy)-2,5-difluorophenyl)-4-((3-(trifluoromethyl)phenyl)sulfonyl)-3,4-dihydro-2H-benzo[b][1,4]-oxazin-2-yl)-2,2-dimethyl-propanoic acid] | ** (The symbol “**” indicates a value in the range of greater than 90 to 150) | ** (The symbol “**” indicates a value in the range of greater than 90 to 150) | 
12 | < 500 | 500 to 5000 |  | C[C@H](CC(=O)O)[C@H]1CN(S(=O)(=O)c2cccc(C(F)(F)F)c2)c2cc(-c3cc(F)cc(F)c3Cl)ccc2O1 [Compound 80B, (R)-3-((S)-6-(2-chloro-3,5-difluorophenyl)-4-((3-(trifluoromethyl)phenyl)sulfonyl)-3,4-dihydro-2H-benzo[b][1,4]-oxazin-2-yl)butanoic acid] | ** (The symbol “**” indicates a value in the range of greater than 90 to 150) | ** (The symbol “**” indicates a value in the range of greater than 90 to 150) | 
13 | < 500 |  | < 500 | O=C(O)CCC[C@H]1CN(S(=O)(=O)c2cccc(C(F)(F)F)c2)c2cc(-c3cccc(F)c3F)ccc2O1 [Compound 21A, (S)-4-(6-(2,3-difluorophenyl)-4-((3-(trifluoromethyl)phenyl)-sulfonyl)-3,4-dihydro-2H-benzo[b][1,4]oxazin-2-yl)butanoic acid] | **** (The symbol “****” indicates a value greater than 200) |  | ** (The symbol “**” indicates a value in the range of greater than 90 to 150)
14 | < 500 | < 500 |  | COc1cc(S(=O)(=O)N2C[C@H](CNC(=O)[C@@](C)(O)C(F)(F)F)Oc3ccc(-c4cccc(C(F)(F)F)n4)cc32)ccc1F [Compound 30CC, (R)-3,3,3-trifluoro-N-(((S)-4-((4-fluoro-3-methoxyphenyl)-sulfonyl)-6-(6-(trifluoromethyl)-pyridin-2-yl)-3,4-dihydro-2H-benzo[b][1,4]oxazin-2-yl)methyl)-2-hydroxy-2-methylpropanamide] | *** (The symbol “***” indicates a value in the range of greater than 150 to 200) | ** (The symbol “**” indicates a value in the range of greater than 90 to 150) | 
15 | < 500 |  | < 500 | CC1(C(=O)NC[C@H]2CN(S(=O)(=O)c3cccc(C(F)(F)F)c3)c3cc(-c4cc(F)ccc4F)ccc3O2)CC1 [Compound 30AV, (S)-N-((6-(2,5-difluorophenyl)-4-((3-(trifluoromethyl)phenyl)-sulfonyl)-3,4-dihydro-2H-benzo[b][1,4]oxazin-2-yl)methyl)-1-methylcyclo-propane-1-carboxamide] | *** (The symbol “***” indicates a value in the range of greater than 150 to 200) |  | * (The symbol “*” indicates a value in the range of 25 to 90)
